The LD50 is the dose expected to kill half of the subjects tested. As usually defined, the logP is a log measure of how a compound divides between an organic and an aqueous phase. Usually AUC stands for concentration integrated over time. The clearance is a measure of how efficiently the substance is removed, as volume per time. Higher therefore signals efficient removal. As usually defined, the solubility is the concentration that dissolves in the medium under given conditions. Low values mean a poorly soluble substance, high ones a readily soluble substance.

The nature of data set [1]: 1-electron reduction potential / electron affinity. It is filed as physicochemical. The following applies: for E7^1 (1-electron reduction potential): Table 1; for electron affinity relative to MIS: in words.
Data set [2] is described as follows: in vivo. The following applies: mouse.
A short description of data set [3]: physchem. The following applies: octanol:water.
In the next data set the test system is tumors in vivo. The following applies: tumors in vivo and cells; Brown and Lee, 1979; cited from earlier work.
A further data set has as its system BALB/c mice. The following applies: for acute toxicity relative to MIS: from LD50 data of Table 1.
A further data set has as its system hypoxic tumor cells. The following applies: cited from earlier work.
Data set [4] can be described thus: plasma pharmacokinetics and neural tissue exposure (AUC) in dogs. Conditions: for AUC / clearance: dog; for AUC: 500 umol/kg; for AUC PNS: peripheral nerve.
Procedure: (§1) The imidazoles were formulated in a 0.9% sodium chloride solution at a concentration of 5%. Doses of 0.25-1.0 mmole/kg of each compound were administered to normal adult, male cross-bred dogs and subsequent plasma concentrations were monitored by high performance liquid chromatography. Samples of brain, cerebrospinal fluid (CSF), and peripheral nerve (PNS) were removed for assay from similarly dosed dogs over the same test period.
Data set [5] can be described thus: peak tumor concentration in dogs bearing spontaneous tumors. The following applies: for Mean Peak Tumor Concentration: dogs with spontaneous tumors, i.v. bolus 0.5 micromoles/g.
A short description of data set [6]: accelerated rotarod neurotoxicity test. The following applies: for Dose to Give Equivalent Neurotoxicity Relative to MIS: daily dosing, MIS = 1; for factor by which less neurotoxic than MIS: at least a factor of. Background: In the rotarod test animals must keep their balance on a rotating rod.
Source text: Performance and toxicity determinations were made after four-and-one-half weeks of daily dosing.
Data set [7] in a line: in vivo. Conditions: dog.
Procedure: as §1
For data set [8] the following is noted: method of Fujita et al.
The conditions of data set [9]: for tumor/brain ratio relative to MIS: i.p., EMT6 tumor bearing mice, FIGS. 1 and 2; for crossing of the blood/brain barrier relative to MIS: in words.
Procedure: Each test compound was formulated immediately before administration to the animals in Hanks' balanced salt solution at a concentration such that the volume injected intraperitoneally was 0.05 ml per g body weight.
The mice were injected intraperitoneally and at various times were bled by cardiac puncture under anesthesia. Plasma was obtained by centrifugation and stored frozen at -20° C. The tumor and whole brain were taken immediately after cardiac puncture and stored frozen at -20° C.
The brain/plasma ratio is the mean value from all the mice for each compound.
A short description of data set [10]: physchem. The following applies: 0.9% saline.
The subject of another data set is EMT6 tumor cells. Kind of data set: radiosensitization of EMT6 tumor cells. The following applies: in words.
Data set [11] in a line: plasma concentration after oral administration of acetate esters versus parent drugs. Type of data set: in vivo. Conditions: mice, 4 or 5 mmole/kg.
[12] abbreviates: dogs, standardized for 0.5 mmole/kg.

SMILES strings stand for the structures. In brackets after ≈: the same amount, converted by molar mass.

As to `O=[N+]([O-])c1nccn1CCN1CCOCC1`, in [1], the “E7^1 (1-electron reduction potential)” value was -390 mV. Moreover, the LD50 in the data set “in vivo [2]” is approximately 900 mg/kg. Also, the logP in “physchem [3]” is -0.0862.
For `O=[N+]([O-])c1nccn1CC(O)CCl` (stereo not shown) [Compound 1], in that order: -384 mV, approximately 180 mg/kg and 0.176.
In the case of `CCOCC(O)Cn1ccnc1[N+](=O)[O-]` (stereo not shown) [Compound 2], the “E7^1 (1-electron reduction potential)” value in [1] is reported as -391 mV. In addition, the LD50 in “in vivo [2]” was more than 1100 mg/kg. This compound showed a logP in “physchem [3]” of 0.104.
As to `O=[N+]([O-])c1nccn1CC(O)CF` (stereo not shown) [Compound 4], the “E7^1 (1-electron reduction potential)” value in data set [1] is given as -383 mV. Besides, the LD50 in “in vivo [2]” is approximately 900 mg/kg. The logP in “physchem [3]” was -0.357.
On to `O=[N+]([O-])c1nccn1CC(O)CO` (stereo not shown) [Compound 6], for which, in data set [1], the “E7^1 (1-electron reduction potential)” value is listed as -389 mV. Further, the median lethal dose (LD50) in “in vivo [2]” stood at 3100 mg/kg. Besides, the logP in the data set “physchem [3]” is -0.886.
On to `C[S+]([O-])CCn1ccnc1[N+](=O)[O-]` (stereo not shown) [Compound 7], for which the LD50 in the data set “in vivo [2]” was approximately 2000 mg/kg. In addition, in the data set “physchem [3]”, the logP is -1.22.
For the compound `O=C(Cn1ccnc1[N+](=O)[O-])NCC(O)CO` (stereo not shown) [Compound 10], the “E7^1 (1-electron reduction potential)” value in data set [1] was -392 mV. The compound also came in with an LD50 in the data set “in vivo [2]” of more than 6100 mg/kg. In the data set “physchem [3]”, this compound showed a logP of -1.85. Besides, in the data set on tumors in vivo, the “radiosensitizing activity relative to MIS” value is “significantly inferior to MIS”.
For `COCC(O)Cn1ccnc1[N+](=O)[O-]` (stereo not shown) [MIS, misonidazole, reference compound], in data set [1], the “E7^1 (1-electron reduction potential)” value was -389 mV. Also, in the data set with BALB/c mice (BALB/c mice (20-25 g)), the “Acute LD50” value was 1.8(1.3-2.6) mg/g. Further, in the data set with hypoxic tumor cells (conventional multifraction radiotherapy regime), the “radiosensitization at recommended dose” value was “suboptimal radiosensitization”. Also, in the data set with hypoxic tumor cells (in words), the “radiosensitizing activity relative to metronidazole” value was “greater radiosensitizing activity of the two compounds”. Also, the “clinical limitation by toxicity” value with hypoxic tumor cells (man, in words) is “limited by its neurotoxicity”. In the data set with hypoxic tumor cells (man, per body surface, Dische et al), the “recommended maximum total dose (neurotoxicity)” value is not above 12 g/m^2. The same compound yielded an AUC in data set [4] (cerebrospinal fluid) of 2660 µM·h. Besides, in [4] (plasma), the clearance is 1.5 mL/min/kg and the AUC came to 3680 µM·h. In addition, in data set [4] (setting [12]), the “AUC PNS” value is listed as 2.25 μ moles.hr.ml^ -1 or g^-1 and the “AUC Brain” value is 2.32 μ moles.hr.ml^ -1 or g^-1. For the same compound, the “Mean Peak Tumor Concentration” value in data set [5] is recorded as 0.56 μ moles.g^-1. Besides, the “Dose to Give Equivalent Neurotoxicity Relative to MIS” value in data set [6] (four-and-one-half weeks) was found to be 1.
Regarding `O=C(Cn1ccnc1[N+](=O)[O-])NCCO` [SR-2508, N-(2-hydroxyethyl)-2-(2-nitro-1-imidazolyl)acetamide], in [1], the “E7^1 (1-electron reduction potential)” value was -388 mV and the “electron affinity relative to MIS” value is on record as “similar”. Moreover, the LD50 in the data set “in vivo [2]” was determined as 4900 mg/kg. Further, the clearance in the data set “in vivo [7]” is 3.5 mL/min/kg. The “octanol:water partition coefficient” value in data set [8] came out at 0.046. In addition, in the data set with BALB/c mice, the “acute toxicity relative to MIS” value was “about three to five times less”. For the same compound, in data set [9], the “tumor/brain ratio relative to MIS” value is listed as “an order of magnitude greater than MIS” and the “crossing of the blood/brain barrier relative to MIS” value is recorded as “to a lower degree than does MIS”. In addition, in the data set “physchem [3]”, the logP was -1.34. Moreover, the solubility in “physchem [10]” was approximately 200 mg/mL (≈ 934 mM). In data set [6], the “factor by which less neurotoxic than MIS” value was 3-5. Besides, the “Dose to Give Equivalent Neurotoxicity Relative to MIS” value in [6] (four-and-one-half weeks) was more than 3.3. The “radiosensitizing efficiency relative to MIS” value in the data set with EMT6 tumor cells is “comparable radiosensitizing activity”.
Regarding `O=C(Cn1ccnc1[N+](=O)[O-])N(CCO)CCO` [SR-2555, N,N-di-(2-hydroxyethyl)-2-(2-nitro-1-imidazolyl)acetamide], in data set [1], the “E7^1 (1-electron reduction potential)” value is -398 mV and the “electron affinity relative to MIS” value is recorded as “similar”. Besides, the LD50 in “in vivo [2]” is more than 7700 mg/kg. In addition, the “octanol:water partition coefficient” value in data set [8] is listed as 0.026. Also, the “acute toxicity relative to MIS” value in the data set with BALB/c mice is recorded as “about three to five times less”. Besides, in data set [9], the “tumor/brain ratio relative to MIS” value is given as “an order of magnitude greater than MIS” and the “crossing of the blood/brain barrier relative to MIS” value is “to a lower degree than does MIS”. In addition, the logP in the data set “physchem [3]” was -1.59. The solubility in the data set “physchem [10]” was more than 300 mg/mL. The same compound gave an AUC in [4] (cerebrospinal fluid, AUC CSF, dogs, standardized for 0.5 mmole/kg) of 170 µM·h. The clearance in [4] (plasma) is 4.33 mL/min/kg. This compound came in with an AUC in data set [4] (plasma, AUC Plasma, dogs, standardized for 0.5 mmole/kg) of 1620 µM·h. For the same compound, in [4] (dogs, in words), the “clearance rate relative to MIS” value is “considerably more rapid than for MIS”; the “penetration into brain, CSF and peripheral nerves relative to MIS” value was “considerably lower”; the “total exposure of neural tissues (AUC) relative to MIS” value is recorded as “significantly smaller than for MIS”. Further, in [4] (setting [12]), the “AUC PNS” value is 0.75 μ moles.hr.ml^ -1 or g^-1 and the “AUC Brain” value is listed as 0.51 μ moles.hr.ml^ -1 or g^-1. The “Mean Peak Tumor Concentration” value in data set [5] is recorded as 1.30 μ moles.g^-1. Also, in data set [5] (dogs, i.v. bolus, in words), the “peak tumor concentration relative to MIS” value is on record as “considerably higher than MIS” and the “time of peak tumor concentration relative to MIS” value is listed as “considerably earlier than MIS”. Further, in data set [6], the “factor by which less neurotoxic than MIS” value is reported as 3-5. In data set [6] (daily dose 3.0 mg/g, four-and-one-half weeks), the “Performance Relative to Controls” value was determined as 1.07 ± 0.16. Also, in data set [6] (four-and-one-half weeks), the “Dose to Give Equivalent Neurotoxicity Relative to MIS” value is more than 5. Further, in the data set with EMT6 tumor cells, the “radiosensitizing efficiency relative to MIS” value is “comparable radiosensitizing activity”.
In the case of `CC(=O)OCCNC(=O)Cn1ccnc1[N+](=O)[O-]` [acetate ester of SR-2508], the “peak plasma concentration of SR-2508 or SR-2555 after oral ester relative to oral parent drug” value in data set [11] was “significantly higher”.
Turning to `COC(=O)Cn1ccnc1[N+](=O)[O-]` [methyl 2-nitroimidazole-1-acetate], in “physchem [10]”, the concentration in solution (solubility) came to 13.6 mg/mL (≈ 73.5 mM).

The values are drawn from patent publication US4371540A, “Nitroimidazoles of low toxicity and high activity as radiosensitizers of hypoxic tumor cells” (priority 1980, dated 1983).
